# Measurements from patent US6114310A, “Efflux pump inhibitors” (priority 1998, dated 2000).
# Tested on: Pseudomonas aeruginosa PAM1001
# Experiment: microbe, parasite or virus in culture
# Assay type: cell-based
# Outline: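 Checkerboard broth microdilution (NCCLS) with the efflux pump inhibitor and levofloxacin, each diluted along one axis of the plate, in Mueller Hinton Broth. Inoculum 5×10^5 CFU/ml from early-log culture; incubation 20 h at 35° C. Growth read at 650 nm and visually.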
# [1] = Table 1, EPI Conc. μg/ml (number not given; column between 10 and 40 μg/ml)
# [2] = Table 2, EPI Conc. μg/ml (number not given; column between 10 and 40 μg/ml)
# [3] = Table 3, EPI Conc. μg/ml (number not given; column between 10 and 40 μg/ml)
# [4] = Table 4, EPI Conc. μg/ml (number not given; column between 10 and 40 μg/ml)
Substance,"Levofloxacin MIC Against P. aeruginosa PAM1001 in Presence of Efflux Pump Inhibitor (EPI), Minimum Inhibitory Concentration (Table 1, EPI Conc. 0 μg/ml) [µg/mL]","Levofloxacin MIC Against P. aeruginosa PAM1001 in Presence of Efflux Pump Inhibitor (EPI), Minimum Inhibitory Concentration (Table 1, EPI Conc. 0.625 μg/ml) [µg/mL]","Levofloxacin MIC Against P. aeruginosa PAM1001 in Presence of Efflux Pump Inhibitor (EPI), Minimum Inhibitory Concentration (Table 1, EPI Conc. 5 μg/ml) [µg/mL]","Levofloxacin MIC Against P. aeruginosa PAM1001 in Presence of Efflux Pump Inhibitor (EPI), Minimum Inhibitory Concentration (Table 1, EPI Conc. 10 μg/ml) [µg/mL]","Levofloxacin MIC Against P. aeruginosa PAM1001 in Presence of Efflux Pump Inhibitor (EPI), Minimum Inhibitory Concentration (Table 1, EPI Conc. 40 μg/ml) [µg/mL]","Levofloxacin MIC Against P. aeruginosa PAM1001 in Presence of Efflux Pump Inhibitor (EPI), Minimum Inhibitory Concentration [1] [µg/mL]","Levofloxacin MIC Against P. aeruginosa PAM1001 in Presence of Efflux Pump Inhibitor (EPI), Minimum Inhibitory Concentration (Table 2, EPI Conc. 0 μg/ml) [µg/mL]","Levofloxacin MIC Against P. aeruginosa PAM1001 in Presence of Efflux Pump Inhibitor (EPI), Minimum Inhibitory Concentration (Table 2, EPI Conc. 0.625 μg/ml) [µg/mL]","Levofloxacin MIC Against P. aeruginosa PAM1001 in Presence of Efflux Pump Inhibitor (EPI), Minimum Inhibitory Concentration (Table 2, EPI Conc. 5 μg/ml) [µg/mL]","Levofloxacin MIC Against P. aeruginosa PAM1001 in Presence of Efflux Pump Inhibitor (EPI), Minimum Inhibitory Concentration (Table 2, EPI Conc. 10 μg/ml) [µg/mL]","Levofloxacin MIC Against P. aeruginosa PAM1001 in Presence of Efflux Pump Inhibitor (EPI), Minimum Inhibitory Concentration (Table 2, EPI Conc. 40 μg/ml) [µg/mL]","Levofloxacin MIC Against P. aeruginosa PAM1001 in Presence of Efflux Pump Inhibitor (EPI), Minimum Inhibitory Concentration [2] [µg/mL]","Levofloxacin MIC Against P. aeruginosa PAM1001 in Presence of Efflux Pump Inhibitor (EPI), Minimum Inhibitory Concentration (Table 3, EPI Conc. 0 μg/ml) [µg/mL]","Levofloxacin MIC Against P. aeruginosa PAM1001 in Presence of Efflux Pump Inhibitor (EPI), Minimum Inhibitory Concentration (Table 3, EPI Conc. 0.625 μg/ml) [µg/mL]","Levofloxacin MIC Against P. aeruginosa PAM1001 in Presence of Efflux Pump Inhibitor (EPI), Minimum Inhibitory Concentration (Table 3, EPI Conc. 5 μg/ml) [µg/mL]","Levofloxacin MIC Against P. aeruginosa PAM1001 in Presence of Efflux Pump Inhibitor (EPI), Minimum Inhibitory Concentration (Table 3, EPI Conc. 10 μg/ml) [µg/mL]","Levofloxacin MIC Against P. aeruginosa PAM1001 in Presence of Efflux Pump Inhibitor (EPI), Minimum Inhibitory Concentration (Table 3, EPI Conc. 40 μg/ml) [µg/mL]","Levofloxacin MIC Against P. aeruginosa PAM1001 in Presence of Efflux Pump Inhibitor (EPI), Minimum Inhibitory Concentration [3] [µg/mL]","Levofloxacin MIC Against P. aeruginosa PAM1001 in Presence of Efflux Pump Inhibitor (EPI), Minimum Inhibitory Concentration (Table 4, EPI Conc. 0 μg/ml) [µg/mL]","Levofloxacin MIC Against P. aeruginosa PAM1001 in Presence of Efflux Pump Inhibitor (EPI), Minimum Inhibitory Concentration (Table 4, EPI Conc. 0.625 μg/ml) [µg/mL]",further results
D-Ornithyl-β-N-(Cyclopropylmethyl)alanine Quinoline-2-amide Trifluoroacetate [Example 28],4,4,2,1,0.125,0.06,4,4,1,0.50,0.125,0.25,4,4,0.015,0.008,0.015,0.015,4,4,"Levofloxacin MIC Against P. aeruginosa PAM1001 in Presence of Efflux Pump Inhibitor (EPI), Minimum Inhibitory Concentration (Table 1, EPI Conc. […]): 4 µg/mL; Levofloxacin MIC Against P. aeruginosa PAM1001 in Presence of Efflux Pump Inhibitor (EPI), Minimum Inhibitory Concentration (Table 2, EPI Conc. […]): 4 µg/mL; Levofloxacin MIC Against P. aeruginosa PAM1001 in Presence of Efflux Pump Inhibitor (EPI), Minimum Inhibitory Concentration (Table 4, EPI Conc. 5 μg/ml): 2 µg/mL; Levofloxacin MIC Against P. aeruginosa PAM1001 in Presence of Efflux Pump Inhibitor (EPI), Minimum Inhibitory Concentration (Table 4, EPI Conc. 10 μg/ml): 0.25 µg/mL; Levofloxacin MIC Against P. aeruginosa PAM1001 in Presence of Efflux Pump Inhibitor (EPI), Minimum Inhibitory Concentration (Table 4, EPI Conc. 40 μg/ml): 0.125 µg/mL; Levofloxacin MIC Against P. aeruginosa PAM1001 in Presence of Efflux Pump Inhibitor (EPI), Minimum Inhibitory Concentration [4]: 0.125 µg/mL"
D-Ornithyl-β-[N-(ethylthioethyl)]alanine 2-naphthylamide [Compound 42 (Table 3)],4,4,4,1,0.008,0.06,4,4,0.25,0.03,0.06,0.03,4,4,2,0.25,0.125,0.125,4,4,"Levofloxacin MIC Against P. aeruginosa PAM1001 in Presence of Efflux Pump Inhibitor (EPI), Minimum Inhibitory Concentration (Table 1, EPI Conc. […]): 4 µg/mL; Levofloxacin MIC Against P. aeruginosa PAM1001 in Presence of Efflux Pump Inhibitor (EPI), Minimum Inhibitory Concentration (Table 3, EPI Conc. […]): 4 µg/mL; Levofloxacin MIC Against P. aeruginosa PAM1001 in Presence of Efflux Pump Inhibitor (EPI), Minimum Inhibitory Concentration (Table 4, EPI Conc. 5 μg/ml): 2 µg/mL; Levofloxacin MIC Against P. aeruginosa PAM1001 in Presence of Efflux Pump Inhibitor (EPI), Minimum Inhibitory Concentration (Table 4, EPI Conc. 10 μg/ml): 1 µg/mL; Levofloxacin MIC Against P. aeruginosa PAM1001 in Presence of Efflux Pump Inhibitor (EPI), Minimum Inhibitory Concentration (Table 4, EPI Conc. 40 μg/ml): 0.03 µg/mL; Levofloxacin MIC Against P. aeruginosa PAM1001 in Presence of Efflux Pump Inhibitor (EPI), Minimum Inhibitory Concentration (Table 4, EPI Conc. […]): 4 µg/mL; Levofloxacin MIC Against P. aeruginosa PAM1001 in Presence of Efflux Pump Inhibitor (EPI), Minimum Inhibitory Concentration [4]: 0.125 µg/mL"
D-Ornithyl-β-[N-(isobutyl)]alanine quinoline-3-amide [Compound 40 (Table 3)],4,4,1,0.06,0.015,0.03,4,4,1,0.06,0.06,0.06,4,4,0.06,0.015,0.015,0.015,4,4,"Levofloxacin MIC Against P. aeruginosa PAM1001 in Presence of Efflux Pump Inhibitor (EPI), Minimum Inhibitory Concentration (Table 1, EPI Conc. […]): 4 µg/mL; Levofloxacin MIC Against P. aeruginosa PAM1001 in Presence of Efflux Pump Inhibitor (EPI), Minimum Inhibitory Concentration (Table 4, EPI Conc. 5 μg/ml): 1 µg/mL; Levofloxacin MIC Against P. aeruginosa PAM1001 in Presence of Efflux Pump Inhibitor (EPI), Minimum Inhibitory Concentration (Table 4, EPI Conc. 10 μg/ml): 0.25 µg/mL; Levofloxacin MIC Against P. aeruginosa PAM1001 in Presence of Efflux Pump Inhibitor (EPI), Minimum Inhibitory Concentration (Table 4, EPI Conc. 40 μg/ml): 0.06 µg/mL; Levofloxacin MIC Against P. aeruginosa PAM1001 in Presence of Efflux Pump Inhibitor (EPI), Minimum Inhibitory Concentration [4]: 0.06 µg/mL"
Phenylalanyl-Nα -methylornithine 2-(naphthylmethyl)amide [Compound 17 (Table 1)],4,4,0.25,0.125,0.125,0.06,4,4,4,2,0.03,0.50,4,4,4,2,0.25,1,4,4,"Levofloxacin MIC Against P. aeruginosa PAM1001 in Presence of Efflux Pump Inhibitor (EPI), Minimum Inhibitory Concentration (Table 2, EPI Conc. […]): 4 µg/mL; Levofloxacin MIC Against P. aeruginosa PAM1001 in Presence of Efflux Pump Inhibitor (EPI), Minimum Inhibitory Concentration (Table 3, EPI Conc. […]): 4 µg/mL; Levofloxacin MIC Against P. aeruginosa PAM1001 in Presence of Efflux Pump Inhibitor (EPI), Minimum Inhibitory Concentration (Table 4, EPI Conc. 5 μg/ml): 0.50 µg/mL; Levofloxacin MIC Against P. aeruginosa PAM1001 in Presence of Efflux Pump Inhibitor (EPI), Minimum Inhibitory Concentration (Table 4, EPI Conc. 10 μg/ml): 0.125 µg/mL; Levofloxacin MIC Against P. aeruginosa PAM1001 in Presence of Efflux Pump Inhibitor (EPI), Minimum Inhibitory Concentration (Table 4, EPI Conc. 40 μg/ml): 0.125 µg/mL; Levofloxacin MIC Against P. aeruginosa PAM1001 in Presence of Efflux Pump Inhibitor (EPI), Minimum Inhibitory Concentration [4]: 0.125 µg/mL"
